# Values joined by “and” are separate entries in the source; they are usually repeats but may differ in a detail not shown here. Identical values can stand only once. “Also recorded” adds a separate entry of the source. Like-named read-outs stand apart in the source and are kept apart here.
# Legend:
# [1] = tested on: NKA from pig kidneys; details: read-out: IC50 measured for the enzyme from pig kidneys; cited from earlier work
# [2] = molecular target: NKA in E2P-conformation; parameters: method as in PMID 33318128; details: read-out: Kd for binding to E2P-conformation; cited from earlier work
# [3] = molecular target: T1, α1R-Na,K-ATPase in E2P-conformation (Rattus norvegicus, UniProt P06685); test: biochemical; assay type: binding
# T1 construct: α1R-NKA from rat kidneys was transferred into the buffer by dialysis; from tissue; host or cells: rat kidney
# Description: (§1) The thermodynamic parameters of CTSs’ binding to the pig and rat NKA were measured using the MicroCal iTC200 instrument (MicroCal, Northampton, MA, USA), as described earlier. α1S-NKA (pig) was transferred into E2P-conformation in the following way: enzyme preparations (5 mg) were suspended in 3 mL of buffer 10 mM imidazole, 3 mM Tris/Pi (pH 7.4), 1 mM EDTA, 0.1 mM DTT and 3 mM MgCl2 (E2P-conformation). DTT was added to the buffer immediately before the experiment. Suspensions of enzymes were centrifuged at 138,000 g for 90 min, and the pellets obtained were suspended in the buffer. α1R-NKA from rat kidneys was transferred into the buffer by dialysis.
# (§2) Experiments were carried out at 37 °C. CTSs were diluted by a buffer that was used for enzyme suspension. Aliquots (2.5 μL) of ligands were injected into a 0.2 mL cell containing the protein solution to achieve a complete binding isotherm. The protein concentration on the cell ranged from 10 to 20 μM, and the ligand concentration in the syringe ranged from 50 to 200 μM. When we used digoxin or marinobufagenin, stock solutions were prepared using 100% DMSO, and then stock solutions were diluted to needed concentrations by the corresponding buffer; after that, aliquots were added to the cell. The medium with a protein of interest contained DMSO in the same concentration.
# (§3) The resulting titration curves were fitted using the MicroCal Origin software, assuming one set of binding sites. Affinity constants (Ka) and enthalpy variations (ΔH) were determined, and the Gibbs energy (ΔG) and entropy variations (ΔS) were calculated from the equation:ΔG = −RTlnKa = ΔH – TΔS.
# [4] = molecular target: T2, α1R-Na,K-ATPase from rat kidneys (Rattus norvegicus, UniProt P06685); test: Hydrolytic Na,K-ATPase activity (enzyme coupled assay), CTS in incubation medium; assay type: biochemical; details: for inhibition of α1R-NKA activity (in words): concentration up to 500 μM
# T2 construct: α1R-NKA from rat kidneys was transferred into the buffer by dialysis; from tissue; host or cells: rat kidney
# Description: (§4) NKA activity was estimated as ATP cleavage using the enzyme coupled assay method. Incubation medium (2 mL) contained 130 mM NaCl, 20 mM KCl, 4 mM MgCl2, 3 mM ATP, […] (pH 7.4), 1 mM phosphoenolpyruvate, 0.2 mM NADH, 0.18 MM; NADH and pyruvate kinase (600–1000 units/mL)/lactate dehydrogenase (900–1400 units/mL). […] Incubation was carried out at 37 °C, and the concentration of Na,K-ATPase in the sample was 0.4–0.6 μg/mL. […] To determine IC50, 2 μg NKA was preincubated with CTSs in the incubation medium for 10 min, and after that, the reaction was started by the addition of ATP.
# (§5) The plots describing the dependence of the NKA hydrolytic activity on CTSs concentration in the incubation medium were made using the Origin 8.1 program (OriginLab Corp., Northampton, MA, USA). They were fitted by hyperbola. The dependence of the Na,K-ATPase hydrolytic activity on the CTSs’ concentration in the preincubation media was fitted to the Hill 1 function: y=y0+ymax−y0x^n/k^n+x^n, where y—Na,K-ATPase activity; x—concentration of CTS; k—inhibition constant; n—Hill coefficient. Fitting was performed using Origin 8.1 software.
# [5] = molecular target: T3, α1S-Na,K-ATPase from pig kidneys (Sus scrofa, UniProt P05024); test: as above; assay type: biochemical
# T3 construct: In contrast to α1S-NKA from pig kidneys; from tissue; host or cells: pig kidney
# Description: as §4, §5
# [6] = molecular target: NKA from duck salt glands (α1β1-isoform), E2P-conformation; parameters: method as in PMID 26297827; details: cited from earlier work; for Kd: read-out: Kd, binding to E2P-conformation of NKA
# [7] = molecular target: T4, α1S-Na,K-ATPase in E2P-conformation (Sus scrofa, UniProt P05024); test: biochemical; assay type: binding, pig
# T4 construct: In contrast to α1S-NKA from pig kidneys; from tissue; host or cells: pig kidney
# Description: as §1, §2, §3
# [8] = tested on: renal epithelial cells; parameters: method as in PMID 15494417; details: ion transport by NKA inhibited by 50% at these concentrations; cited from earlier work
# [9] = molecular target: T5, α1S-Na,K-ATPase from pig kidneys in E2P-conformation (Sus scrofa, UniProt P05024); assay type: biochemical
# T5 construct: In contrast to α1S-NKA from pig kidneys; from tissue; host or cells: pig kidney
# Description: (§6) To identify a mode of enzyme inhibition by CTSs after their binding to different enzyme conformations, we preincubated NKA in the medium containing 30 MM imidazole (pH 7.4), 3 mM MgCl2, 3 mM Pi/Tris and 1 mM EDTA (E2P-conformation). Solutions of CTSs were made using 100% DMSO with a final concentration of ouabain 100 mM and digoxin and marinobufagenin at 10 mM. Then an aliquot of the corresponding stock solution was added to the preincubation medium to obtain a final CTSs concentration.
# (§7) After enzyme preincubation with different concentrations of CTSs for several minutes, the reaction was started by transferring the aliquot of the solution containing 0.25–2.5 μg of NKA from the preincubation medium into the incubation one. The concentration of CTSs was decreased by this procedure by 50–100 times. […] That time interval was equal to 10 min for E2P-conformation of pig and rat kidney enzymes. The control sample was preincubated under the same conditions with a concentration of DMSO that was added to the experimental medium with the corresponding CTS.
# as §5
# [10] = molecular target: T6, α1R-Na,K-ATPase from rat kidney in E2P-conformation (Rattus norvegicus, UniProt P06685); assay type: biochemical
# T6 construct: α1R-NKA from rat kidneys was transferred into the buffer by dialysis; from tissue; host or cells: rat kidney
# Description: as §6, §7, §5
# [11] = CTS in incubation medium, 37 °C, hyperbola fit, read-out: IC50, inhibition of α1S-NKA hydrolytic activity
# [12] = as restated in discussion, read-out: IC50 evaluated in our experiments
# [13] = ITC, E2P-conformation, pH 7.4, 37 °C
# [14] = ITC, E2P-conformation, pH 7.4, 37 °C, calculated as Kd = 1/Ka, read-out: Kd (dissociation constant)
# [15] = ITC, pH 7.4, 37 °C, ΔG = −RTlnKa
# [16] = after preincubation with enzyme in E2P-conformation and dilution
# [17] = ITC, E2P-conformation, pH 7.4, 37 °C, nd = not detected
smiles,measurement,setting,value
C[C@]12CC[C@H](O)C[C@H]1CC[C@@H]1[C@@H]2CC[C@]2(C)[C@@H](c3ccc(=O)oc3)CC[C@]12O [bufalin],IC50,[1],110 nM
same,Kd,[2],125 nM
C[C@]12CC[C@H](O)C[C@@]1(O)CC[C@@H]1[C@@H]2CC[C@]2(C)[C@@H](c3ccc(=O)oc3)C[C@H]3O[C@]132 [marinobufagenin],binding of α1R-NKA to CTS (in words),"[3]; ITC, association constants below 2 × 10^4 M^−1 cannot be measured",no measurable binding
same,inhibition of α1R-NKA activity (in words),[4],does not inhibit this isoform at all
same,inhibition of α1R-NKA activity (in words),[4]; listed as Marinobufagenin,does not inhibit
same,IC50,[5]; [11],800 nM
same,IC50,[5]; [12],1200 nM
same,Kd,[6],1700 nM
same,IC50,[1],1500 nM
same,entropy component (−TΔS),"[7]; ITC, 37 °C",-2.8 kcal/mol
same,affinity of α1S-NKA for marinobufagenin lower than that for digoxin,"[7]; ITC, E2P-conformation, 37 °C",~11 times
same,affinity of α1S-NKA for marinobufagenin lower than that for ouabain,"[7]; ITC, E2P-conformation, 37 °C",about 44 times
same,Ka (association constant),[7]; [13],4.3 × 10^5 * M^−1
same,TΔS (entropy variation),[7]; [13],2.8 kcal/mol
same,n (reaction stoichiometry),[7]; [13],1.7 ± 0.2
same,ΔH (enthalpy variation),[7]; [13],-5.2 ± 0.3 kcal/mol
same,Kd,[7]; [14],2320 nM
same,ΔH (enthalpy variation),"[7]; ITC, E2P-conformation, pH 7.4, 37 °C, listed as MBG",-5.2 kcal/mol
same,Kd,"[7]; ITC, Table 1 value as quoted in discussion, read-out: Kd for binding to E2P-conformation",2300 nM
same,ΔG (Gibbs energy),[7]; [15],-7.9 kcal/mol
same,concentration inducing renal epithelial cells death,[8],about 1 μM
same,mode of α1S-NKA inhibition (in words),[9]; [16],reversible inhibitor; also recorded: reversibly
C[C@H]1O[C@@H](O[C@H]2[C@@H](O)C[C@H](O[C@H]3[C@@H](O)C[C@H](O[C@H]4CC[C@@]5(C)[C@H](CC[C@@H]6[C@@H]5C[C@@H](O)[C@]5(C)[C@@H](C7=CC(=O)OC7)CC[C@]65O)C4)O[C@@H]3C)O[C@@H]2C)C[C@H](O)[C@@H]1O [digoxin],binding of α1R-NKA to CTS (in words),[3],no measurable binding
same,IC50,[4],250000 nM
same,IC50,"[5]; IC50, inhibition of α1S-NKA hydrolytic activity",1200 nM
same,IC50,[5]; IC50 evaluated in our experiments,2000 nM
same,IC50,[1],1950 nM
same,entropy component (−TΔS),[7],-2.0 kcal/mol
same,TΔS (entropy variation),[7]; pH 7.4,2.0 kcal/mol
same,n (reaction stoichiometry),[7]; pH 7.4,0.5 ± 0.1
same,ΔG (Gibbs energy),[7]; pH 7.4,-9.9 kcal/mol
same,ΔH (enthalpy variation),[7]; pH 7.4,-7.9 ± 0.6 kcal/mol and -7.9 kcal/mol
same,mode of interaction with α1R-NKA (in words),[10],reversible
same,Hill coefficient,[9],1.90 ± 0.21 and 1.70 ± 0.33 and 1.99 ± 0.27
same,mode of α1S-NKA inhibition (in words),[9],pseudo-irreversible inhibitors
same,Kd,[2],126 nM
C[C@@H]1O[C@@H](O[C@H]2C[C@@H](O)[C@]3(CO)[C@H]4[C@H](O)C[C@]5(C)[C@@H](C6=CC(=O)OC6)CC[C@]5(O)[C@@H]4CC[C@]3(O)C2)[C@H](O)[C@H](O)[C@H]1O [ouabain],entropy component (−TΔS),"[3]; ITC, 37 °C",-3.4 kcal/mol
same,TΔS (entropy variation),[3]; [13],3.4 kcal/mol
same,Kd,[3]; [14],3230 nM
same,Ka (association constant),[3]; [17],3.1 × 10^5 * M^−1
same,n (reaction stoichiometry),[3]; [17],0.6 ± 0.1
same,ΔH (enthalpy variation),[3]; [17],-4.3 ± 0.7 kcal/mol and -4.3 kcal/mol
same,ΔG (Gibbs energy),[3]; [15],-7.7 kcal/mol
same,ouabain affinity for α1R-NKA lower than for α1S-NKA,"[3]; ITC, α1R versus α1S",60 times
same,IC50,"[4]; CTS in incubation medium, 37 °C, hyperbola fit, read-out: IC50, inhibition of rat enzyme (α1R-NKA) hydrolytic activity",140000 nM
same,IC50,[5]; [11],2000 nM
same,IC50,[5]; [12],800 nM
same,higher affinity of ouabain binding in comparison to marinobufagenin,[6]; E2P-conformation,17 fold
same,Kd,[6],100 nM
same,IC50,[1],900 nM
same,Ka (association constant),[7]; [13],1.9e+07 M⁻¹
same,TΔS (entropy variation),[7]; [13],-11.3 kcal/mol
same,n (reaction stoichiometry),[7]; [13],0.7 ± 0.2
same,ΔH (enthalpy variation),[7]; [13],-21.6 ± 0.7 kcal/mol and -21.6 kcal/mol
same,Kd,[7]; [14],53 nM
same,ΔG (Gibbs energy),[7]; [15],-10.3 kcal/mol
same,concentration inducing renal epithelial cells death,[8],~0.1 µM
same,mode of interaction with α1R-NKA (in words),[10]; after preincubation with enzyme and dilution,reversibly; also recorded: reversible
same,Hill coefficient,"[9]; CTS in preincubation medium, 40 nM of the enzyme",1.89 ± 0.14
same,Hill coefficient,"[9]; CTS in preincubation medium, 80 nM of the enzyme",1.96 ± 0.19
same,Hill coefficient,"[9]; CTS in preincubation medium, 400 nM of the enzyme",1.91 ± 0.09
same,mode of α1S-NKA inhibition (in words),[9]; [16],pseudo-irreversible inhibitors
same,Kd,[2],88 nM

# Source: PMC8708600, “Depth of the Steroid Core Location Determines the Mode of Na,K-ATPase Inhibition by Cardiotonic Steroids” (International Journal of Molecular Sciences, 2021)
